Test results published in article PMC8466373, “Plant-Derived and Dietary Hydroxybenzoic Acids—A Comprehensive Study of Structural, Anti-/Pro-Oxidant, Lipophilic, Antimicrobial, and Cytotoxic Activity in MDA-MB-231 and MCF-7 Cell Lines” (Nutrients, 2021).
≈ marks a conversion by molar mass, not a printed value. Where two headings read alike, the source gives them in different places. Marks after values point to notes of the source that are not given here.

Legend:
ABTS assay = format: biochemical; settings: 50 μM, methanolic solutions, 7 min of reaction time
Experimental: ABTS assay was conducted according to the procedure of Re et al.. […] The absorbance of the solutions was measured with a UV–Vis spectrophotometer at 734 nm against methanol (the blank). The ability to scavenge ABTS^•+ cation radicals was expressed as the %I of ABTS^•+ and calculated according to the aforementioned equation.

[1] = FRAP assay (ferric-reducing antioxidant power); format: biochemical; design: key: (-): Negative values were obtained for these acids; settings: concentration of 50 μM, methanolic solutions
Experimental: FRAP assay was carried out as described in [42]. […] After 8 min of incubation at 23 °C, the absorbance at 595 nm was measured against the blank (containing 0.4 mL of methanol instead of the sample). Ferric-reducing antioxidant activity was expressed as Fe(II) ion equivalents (μM) using the calibration curve obtained for FeSO4 (the standard curve equation: y = 3.4303x − 0.1058; R^2 = 0.9984).

[2] = system: Salmonella enteritidis (NCTC 4776); experiment: MIC by serial dilution in agar medium; format: cell-based; settings: Salmonella enterica; Salmonella enteritidis; read-out: MIC
Experimental: (§1) The following bacterial strains were used in this study: Escherichia coli (PCM 2857), Pseudomonas aeruginosa (PCM 2720), Bacillus subtilis (PCM 2850), Staphylococcus aureus (PCM 2267), Salmonella enteritidis (NCTC 4776), and Candida albicans (PCM 2566-FY). The microbial strains were bought from the Polish Collection of Microorganisms (Wroclaw, Poland) or the American Type Culture Collection.
(§2) The MIC (minimal inhibitory concentration) was determined by serial dilution of the tested compound in an agar medium, to which the appropriate inoculum of microorganisms was then added and incubated. Escherichia coli, Pseudomonas aeruginosa, Staphylococcus aureus, Bacillus subtilis, Salmonella enteritidis, and Candida albicans were grown overnight and then resuspended in physiological saline to an optical density at 600 nm (OD = 600) of 0.60, corresponding to 5.0 × 10^8 CFU/mL. Bacteria (0.1 mL of the reconstituted suspension) were seeded onto sterile Mueller–Hinton agar plates, to which previously suitable amounts of the tested compounds were added to reach the desired concentration. Tested chemicals were dissolved in DMSO solution. Negative controls were agar plates, to which DMSO was added, while positive controls were plates with gentamycin (in the case of bacteria) or flucanozole (in the case of fungi). The plates were incubated at 37 °C for 24 h. The lowest concentration without visible bacterial growth was determined as the MIC.

[3] = system: Bacillus subtilis (PCM 2850); experiment: MIC by serial dilution in agar medium; format: cell-based; settings: read-out: MIC
Experimental: as §1, with “Collection. Bacteria (0.1 mL of the reconstituted suspension) were seeded onto sterile Mueller–Hinton agar plates (Biomaxima), to which previously suitable amounts of the tested compounds were added to give the desired concentration.” for “Collection.”
as §2

[4] = system: Candida albicans (PCM 2566-FY); experiment: MIC by serial dilution in agar medium; format: cell-based; settings: read-out: MIC
Experimental: as §1, with “Collection. Bacteria (0.1 mL of the reconstituted suspension) were seeded onto sterile Mueller–Hinton agar plates (Biomaxima), to which previously suitable amounts of the tested compounds were added to give the desired concentration.” for “Collection.”
as §2

[5] = system: Escherichia coli (PCM 2857); experiment: MIC by serial dilution in agar medium; format: cell-based; settings: read-out: MIC
Experimental: as §1, with “Collection. Bacteria (0.1 mL of the reconstituted suspension) were seeded onto sterile Mueller–Hinton agar plates (Biomaxima), to which previously suitable amounts of the tested compounds were added to give the desired concentration.” for “Collection.”
as §2

[6] = system: Pseudomonas aeruginosa (PCM 2720); experiment: MIC by serial dilution in agar medium; format: cell-based; settings: read-out: MIC
Experimental: as §1, with “Collection. Bacteria (0.1 mL of the reconstituted suspension) were seeded onto sterile Mueller–Hinton agar plates (Biomaxima), to which previously suitable amounts of the tested compounds were added to give the desired concentration.” for “Collection.”
as §2

[7] = system: Staphylococcus aureus (PCM 2267); experiment: MIC by serial dilution in agar medium; format: cell-based; settings: read-out: MIC
Experimental: as §1, with “Collection. Bacteria (0.1 mL of the reconstituted suspension) were seeded onto sterile Mueller–Hinton agar plates (Biomaxima), to which previously suitable amounts of the tested compounds were added to give the desired concentration.” for “Collection.”
as §2

[8] = system: E. coli, P. aeruginosa, S. aureus, B. subtilis, S. enteritidis, and C. albicans; experiment: MIC, stated for all tested strains together; format: cell-based; settings: all of the tested strains
Experimental: as §1, with “Collection. Bacteria (0.1 mL of the reconstituted suspension) were seeded onto sterile Mueller–Hinton agar plates (Biomaxima), to which previously suitable amounts of the tested compounds were added to give the desired concentration.” for “Collection.”
as §2

[9] = Cytotoxicity, neutral red (NR) assay; format: cell-based, human; settings: human, 48 h treatment, neutral red assay
Experimental: Briefly, MCF-7 cells were cultured in EMEM (Biological Industries, Israel) medium supplemented with 10% fetal calf serum (Gibco). MDA-MB-231 cells were cultured in Leibovitz‘s L15 (Biological Industries, Beit HaEmek, Israel) medium supplemented with 10% fetal calf serum (Gibco). The MCF-7 cells were incubated in a 5% CO2 atmosphere at 37 °C, whereas the MDA-231 cells were incubated in a 100% air atmosphere at 37 °C.
Cytotoxicity evaluation was conducted to assess the impact of hydroxybenzoic acids on the proliferation of MCF-7 and MDA-MB-231 cells, which was measured via neutral red (NR) assay. In brief, cells were seeded in 96-well microplates (TPP, Switzerland) at a density of 2 × 10^4 cells/well in 100 μL of culture medium. At least three independent experiments in six replicate wells were conducted per concentration. Twenty-four hours after cell seeding, cells were treated with increasing concentrations of hydroxybenzoic acids (0.02–5 mM) for forty-eight hours. After treatment, cells were incubated for 3 h at 37 °C with 100 µL of neutral red solution (stock solution of NR) (Sigma-Aldrich), and then 5 mg/mL of PBS was diluted 1:100 in cell culture medium, incubated for 12 h at 37 °C, and centrifuged to remove any undissolved NR powder. […] After 15 min of gentle shaking, optical density was read at 540 nm with an Infinite M200 plate reader spectrophotometer (Tecan, Austria).

[10] = Lipophilicity via RP-HPLC; format: physicochemical
Experimental: The analyses were carried out on the following chromatographic columns: RP-18e Purospher STAR (C18), 150 mm × 4.0 mm, 5 µm, (Merck, Darmstadt, Germany); RP-8e Purospher STAR (C8), 150 mm × 4.6 mm, 5 µm, (Merck, Darmstadt, Germany); Zorbax Eclipse XDB-CN (CN), 150 mm × 4.6 mm, 5 µm, (Agilent Technologies, Santa Clara, CA, USA); Nucleosil Phenyl (PHE), 250 mm × 4.6 mm, 7 µm, (Supelco, Bellefonte, PA, USA); and Regis Rexchrom IAM.PC.DD.2 (IAM), 100 mm × 4.6 mm, 10 µm, (Regis Technologies Inc., Morton Grave, IL, USA). The experimental conditions and the calculations were as described in [46].

[11] = CABTS = 7 mM, t = 6 min, ref 73; read-out: ABTS, IC50; cited from earlier work
[12] = C = 0,001 mg/mL, λ = 593 nm, t = 30 min; cited from earlier work
[13] = ref 102; cited from earlier work
[14] = cited from earlier work

With `O=C(O)c1ccc(O)cc1O` [2,4-DHB, 2,4-Dihydroxybenzoic acid] the “Inhibition of ABTS•+ radicals (%I)” value (ABTS assay) was 16.17%, the FRAP [1] was “(-) *” and the MIC [2] was 2000 µg/mL (≈ 13 mM). It also gave an MIC [3] of 2000 µg/mL (≈ 13 mM), an MIC [4] of 2000 µg/mL (≈ 13 mM) and an MIC [5] of 2000 µg/mL (≈ 13 mM). It also gave an MIC [6] of 2000 µg/mL (≈ 13 mM), an MIC [7] of 2000 µg/mL (≈ 13 mM) and an MIC [8] of 2000 µg/mL (≈ 13 mM). For the same compound, the IC50 at 48 h ([9]; read-out: Cytotoxicity (mM) in Cell Line MCF-7, IC50) was > 5 mM, the IC50 at 48 h ([9]; read-out: Cytotoxicity (mM) in Cell Line MDA-MB-231, IC50) was 4.77 mM and the log kw ([10]; C8 column) was 1.81. The ϕ0 ([10]; C8 column) was 1.38, the log kw ([10]; C18 column) was 2.66 and the ϕ0 ([10]; C18 column) was 0.57. It also gave a log kw ([10]; CN column) of 2.06, a ϕ0 ([10]; CN column) of 1.15 and a log kw ([10]; IAM column) of 1.14. For the same compound, the ϕ0 ([10]; IAM column) was 1.00, the log kw ([10]; PHE column) was 1.39 and the ϕ0 ([10]; PHE column) was 1.05. For the same compound, the IC50 [11] was 0.169 mM, the FRAP [12] was “≈ 0.012 (C = 0,001 mg/mL), λ = 593 nm, t = 30 min) [73] μM Fe^2+” and the LogPexp. [13] was 1.63 [102]. For the same compound, the pKaexp. ([14]; at 25 °C) was 3.11, the pKaexp. ([14]; ref 104) was 3.11 and the pKaexp. ([14]; ref 105) was 3.1.
